In patent US12485116B2, “Pharmaceutical composition for preventing or treating epidemic RNA viral infectious disease” (priority 2020, dated 2025):

Legend:
SARS-CoV-2 [1] = test: Antiviral efficacy by RNA copy numbers (qRT-PCR), co-treatment, Calu-3 human lung cell line; details: Calu-3 cells; for selectivity index, SI / IC50: 48 hours post-infection; for IC50: co-treatment
SARS-CoV-2 [2] = test: Antiviral efficacy by RNA copy numbers (qRT-PCR, RdRp gene), co-treatment, Vero cells
Ebola virus [3] = details: guinea pig models infected with Ebola virus; cited from earlier work
Hela cells = details: cited from earlier work
Ebola virus [4] = details: Vero cells; cited from earlier work
SARS-CoV-2 [5] = test: Antiviral efficacy by immunofluorescence staining imaging, pretreatment, Vero cells; details: 50 μM, pretreated 1 hour, 24 hours post-infection
Vero cells [6] = details: cited from earlier work
Ebola virus [7] = details: Hela cells; cited from earlier work
Ebola virus [8] = details: cited from earlier work
in vitro = details: human
SARS-CoV-2 [9] = test: Post-infection treatment, viral plaque assay, Calu-3 cells; type: cell-based, SARS-CoV-2 (a Korean isolate); details: Severe acute respiratory syndrome coronavirus 2, Calu-3, 12.5 μM, 48 hours after drug treatment
Method: In Experimental Example 6, pyronaridine tetraphosphate or artesunate was treated each in Calu-3 cells at 0, 2, 4, 6, 8, 10, 12, 24 and 36 hours after SARS-CoV-2 (a Korean isolate) inoculation, and evaluated how long hours the inhibitory effect of each drug were retained against virus infections.
Calu-3 cells and viruses were prepared in the same manner as shown in Experimental Example 5.
After dissolving pyronaridine tetraphosphate and artesunate in DMSO each, it was diluted to 12.5 μM using media. At 1 hour after the inoculation with SARS-CoV-2 (MOI=0.1), the supernatant was removed, and Calu-3 cells were washed, followed by the addition of DMEM culture media containing 2% bovine serum. The culture media containing drugs were added at 0, 2, 4, 6, 8, 10, 12, 24 and 36 hours each. At 48 hours after each drug treatment, cell supernatants were harvested and a plaque assay—in which the plaques generated by infectious virus infection were counted in Vero cells, cells used for virus amplification—was performed. The DMEM-F12 medium layer containing 2% agarose was laid on the layer of infected Vero cells, and the number of plaques was counted by using counter-staining with crystal violet, after incubation for 72 hours.

Vero cells [10] = details: African green monkey (Chlorocebus sp.)
SARS-CoV-2 [11] = test: In vivo antiviral efficacy in SARS-CoV-2-infected hamsters, lung virus titer by plaque assay; parameters: species or system Syrian hamsters; details: 360 mg/kg alone, oral, once at 25 hours post-infection, 4-day post-infection; vehicle control 8.30
Ebola virus [12] = details: in vitro assays; cited from earlier work
Vero cells [13] = test: Cytotoxicity, tetrazolium salts-based assay (WST-1), Vero cells; type: cell-based, African green monkeys (Chlorocebus sp.); details: all conditions tested (3.13, 12.5, 50 μM)
[14] = Cytotoxicity (WST-1), Calu-3 cells; details: human
[15] = co-treatment, Vero cells, 24 hours after infection
[16] = added at up to 6 hours post-infection
[17] = added at up to 12 hours post-infection
[18] = added at up to 24 hours post-infection

In the case of `CCN(CCO)CCCC(C)Nc1ccnc2cc(Cl)ccc12` (stereo not drawn) [hydroxychloroquine], the “antiviral effect in the human lung cell lines” value (SARS-CoV-2 [1]; at less than 50 μM) is reported as “no antiviral effect” and the “antiviral efficacy in the monkey cell lines” value (SARS-CoV-2 [2]; monkey cell lines (Vero)) is reported as “showed antiviral efficacy”.
In the case of `CCN(CC)CCCC(C)Nc1ccnc2cc(Cl)ccc12` (stereo not drawn) [chloroquine], the antiviral effect (Ebola virus [3]) is given as “did not show antiviral effect”.
For `COc1ccc2nc3cc(Cl)ccc3c(Nc3cc(CN4CCCC4)c(O)c(CN4CCCC4)c3)c2n1` [pyronaridine], the CC50 (Hela cells) is listed as 3.1 µM, the “antiviral activity against Ebola virus at a concentration below CC50” value (Ebola virus [4]) is listed as “no antiviral activity” and the “selectivity index, SI” value (SARS-CoV-2 [1]) is listed as greater than 11.66. The IC50 (SARS-CoV-2 [1]) was 8.58 µM, the virus inhibition rate (SARS-CoV-2 [5]) was 70% and the CC50 (Vero cells [6]) was 1.3 µM. For the same compound, the EC50 (Ebola virus [7]) was 0.42 to 1.12 µM, the “virus titer and survival rate” value (Ebola virus [8]; Ebola virus-challenged mouse models) was “significantly improved” and the “mortality and viral infection rate” value (Ebola virus [8]; mouse models challenged with Ebola virus) was “significantly inhibited”. For the same compound, the “selectivity index, SI” value (SARS-CoV-2 [2]; Vero cells, co-treatment) was greater than 1.40, the EC50 (SARS-CoV-2 [2]; [15]) was 8.27 µM and the “inhibition at non-cytotoxic concentrations” value (SARS-CoV-2 [2]; [15]) was “more than 90%”. It also gave a CC50 at 48 h (in vitro) greater than 100 µM, an inhibition at 12.5 µM (SARS-CoV-2 [9]; [16]) greater than 99% and an inhibition at 12.5 µM (SARS-CoV-2 [9]; [17]) greater than 94%. The inhibition at 12.5 µM (SARS-CoV-2 [9]; [18]) was 90%, the “cytotoxicity increased by drug pretreatment” value (Vero cells [10]) was 17% and the “median infectious virus titer in the lung tissues” value (SARS-CoV-2 [11]) was 7.22 Log10 PFU.
In the case of `C[C@H]1[C@H](OC(=O)CCC(=O)O)O[C@@H]2O[C@@]3(C)CC[C@H]4[C@H](C)CC[C@@H]1[C@@]24OO3` [artesunate], the “selectivity index, SI” value (SARS-CoV-2 [1]) is listed as greater than 220.8, the IC50 (SARS-CoV-2 [1]) is listed as 0.45 µM and the “antiviral efficacy against Ebola virus” value (Ebola virus [12]) is listed as “showed an antiviral efficacy”. It also gave an inhibition rate (SARS-CoV-2 [2]; 3.13 μM, 48 hours post-infection, Vero cells) of 39%, an inhibition rate (SARS-CoV-2 [2]; 12.5 μM, 24 hours post-infection, Vero cells) of 40% and an inhibition rate (SARS-CoV-2 [2]; 12.5 μM, 48 hours post-infection, Vero cells) of 51%. For the same compound, the “inhibition rate against virus” value (SARS-CoV-2 [2]; 50 μM, Vero cells, co-treatment) was 83%, the inhibition at 12.5 µM (SARS-CoV-2 [9]; [16]) was 92 to 96% and the inhibition at 12.5 µM (SARS-CoV-2 [9]; [17]) was greater than 90%. The inhibition at 12.5 µM (SARS-CoV-2 [9]; [18]) was 48%, the cytotoxicity (Vero cells [13]) was “no significant cytotoxicity” and the CC50 at 48 h [14] was greater than 100 µM.
